Assay results published in patent US20240131352A1, “NON-INVASIVE CANCER TREATMENT” (SCIENTIA BIOTECH S.L, priority 2021, published 2024).
Like-named read-outs stand apart in the source and are kept apart here. Marks after values point to notes of the source that are not given here.

Tests used:
[1] = test system: A2058 (melanoma, ATCC) cells
[2] = test system: AsPC1 (pancreatic adenocarcinoma, ATCC) cells; details: for effect on viable AsPC1 cells of TTF+HT+GEM+PT: 25 μM gemcitabine + 20 μM pterostilbene minute 0 to 240 + TTF 200 kHz, 1.5 μT + HT 52° C. 20 min, all four in combination
U87MG cells = details: 240 min + HT 42° C. 10 min; for effect on cell viability for U87MG cells: 20 μM compound minute 210 to 240 + TTF 300 kHz, about 8 μT; for effect on viable U87MG cells of TTF+HT+PT: 20 μM pterostilbene minute 120 to 240 + TTF 300 kHz, 8 μT
Protocol: The hyperthermia applied was 42° C. for 10 minutes (from minute 120 to minute 130). 20 μM of pterostilbene was applied for 120 minutes (from minute 120 to minute 240). […] The magnetic field was applied using a solenoid with approximately 100 μT magnetic flux density at the central axis of the solenoid. The solenoid was placed at a distance from the cell cultures such that the average field strength on the surface of the culture flasks where the cells were attached was 8 μT.
FIGS. 15B to 15F show microscopic images of in vitro U87MG cell cultures after exposed to different external treatments.
The data are means with standard deviation for four independent experiments. Data labelled * indicates a P value (student's t test) less than 0.01 compared to the control. Data labelled + indicates a P value (student's t test) less than 0.01 compared to the TTF-only data. Data labelled # indicates a P value (student's t test) less than 0.01 compared to the TTF+HT data.

A549 (lung carcinoma) = assay: heating + tumour treating fields + PT in vitro, A549; format: cell-based
Text: (§1) The effectiveness of therapy by heating in combination with tumour treating fields and exposure to PT is also observed in other cell lines in vitro, such as A2058 (melanoma), AsPC-1 (pancreas carcinoma), A549 (lung carcinoma), MCF-7 (mammary gland carcinoma), HT-29 (colorectal carcinoma), PC-3 (prostate carcinoma), SK-OV-3 (ovarian carcinoma and HepG2 (hepatocarcinoma).

HepG2 (hepatocarcinoma) = assay: heating + tumour treating fields + PT in vitro, HepG2; format: cell-based
Text: as §1

[3] = test system: PC-3 (prostate carcinoma); assay: heating + tumour treating fields + PT in vitro, PC-3; format: cell-based; details: PC-3, in vitro
Text: as §1

[4] = test system: SK-OV-3 (ovarian carcinoma); assay: heating + tumour treating fields + PT in vitro, SK-OV-3; format: cell-based; details: SK-OV-3, in vitro
Text: as §1

GL261 = assay: TTF+HT+PT therapy on glioblastoma line GL261; format: cell-based; details: compared with U87MG
C6 = assay: TTF+HT+PT therapy on glioblastoma line C6; format: cell-based; details: compared with U87MG
[5] = test system: HT-29 (colorectal carcinoma); assay: heating + tumour treating fields + PT in vitro, HT-29; format: cell-based; details: HT-29, in vitro
Text: as §1

[6] = test system: MCF-7 (mammary gland carcinoma); assay: heating + tumour treating fields + PT in vitro, MCF-7; format: cell-based; details: MCF-7, in vitro
Text: as §1

[7] = test system: GSH in A2058 (melanoma) cells; assay: GSH content of A2058 cells in vitro (GSH depletion); format: cell-based
GSH in U87 (GBM) cells = assay: GSH content of U87MG cells in vitro (GSH depletion); format: cell-based
[8] = test system: GSH in AsPC1 (Pancreatic adenocarcinoma) cells; assay: GSH content of AsPC1 cells in vitro (GSH depletion); format: cell-based
[9] = 1 mM BSO + TTF (200 kHz, 1.5 μT, 240 min) + HT (52° C., 20 min) applied 24 hours after seeding
[10] = 1 mM BSO added at seeding, BSO alone, mean ± SD, five experiments

With `CC(=O)O[C@H]1C(=O)[C@@]2(C)[C@H]([C@H](OC(=O)c3ccccc3)[C@]3(O)C[C@H](OC(=O)[C@H](O)[C@@H](NC(=O)c4ccccc4)c4ccccc4)C(C)=C1C3(C)C)[C@]1(OC(C)=O)CO[C@@H]1C[C@@H]2O` [PAC, (2α,4α,5β,7β,10β,13α)-4,10-Bis(acetyloxy)-13-{[(2R,3 S)-3(benzoylamino)-2-hydroxy-3-phenylpropanoyl]oxy}-1,7-dihydroxy-9-oxo-5,20-epoxytax-11-en-2-yl benzoate] the “effect on viable A2058 cells of TTF+HT+PAC” value ([1]; 10 μM paclitaxel minute 0 to 240 + TTF 200 kHz, 1.5 μT + HT 52° C. 20 min) was “eliminated the cells”.

With `Nc1ccn([C@@H]2O[C@H](CO)[C@@H](O)C2(F)F)c(=O)n1` [GEM, gemcitabine] the “effect on viable AsPC1 cells of TTF+HT+GEM+PT” value [2] was “eliminated the AsPC1 cells”.

For `OC[C@H]1O[C@@H](Oc2cc(O)cc(/C=C/c3ccc(O)cc3)c2)[C@H](O)[C@@H](O)[C@@H]1O` [G-diOH-s, 3-glucoside-5,4′-dihydroxystilbene], the “effect on cell viability for U87MG cells” value (U87MG cells) was “significant reduction in cell viability”.

For `Oc1ccc(C=Cc2cc(O)cc(O)c2)cc1` [resveratrol], the “effect on cell viability for U87MG cells” value (U87MG cells) was “do not eliminate all U87MG cell growing in vitro”.

With `COc1cc(/C=C/c2ccc(O)cc2)cc(OC)c1` [pterostilbene, trans-3,5-dimethoxy-4′-hydroxystilbene] the “effectiveness of therapy by heating in combination with tumour treating fields and exposure to PT” value (from here on “effectiveness of therapy by heating”) (A549 (lung carcinoma)) was “also observed”, the “effect on viability of A2058 cells of TTF+HT+PT” value ([1]; 20 μM pterostilbene minute 0 to 240 + TTF 200 kHz, 1.5 μT + HT 52° C. 20 min, compared to TTF+HT) was “significantly reduced the viability of the cells” and the “effectiveness of therapy by heating” value ([1]; A2058 (melanoma), in vitro) was “also observed”. For the same compound, the “effectiveness of therapy by heating” value (HepG2 (hepatocarcinoma)) was “also observed”, the “effectiveness of therapy by heating” value [3] was “also observed” and the “effectiveness of therapy by heating” value [4] was “also observed”. For the same compound, the “effectiveness of TTF+HT+PT therapy” value (GL261) was “same effectiveness”, the “effect on viable AsPC1 cells of TTF+HT+GEM+PT” value [2] was “eliminated the AsPC1 cells” and the “effectiveness of therapy by heating” value ([2]; AsPC-1 (pancreas carcinoma), in vitro) was “also observed”. The “effectiveness of TTF+HT+PT therapy” value (C6) was “same effectiveness”, the “effectiveness of therapy by heating” value [5] was “also observed” and the “effect on viable U87MG cells of TTF+HT+PT” value (U87MG cells) was “effectively eliminates all cells in vitro”. The “effect on viable U87MG cells of TTF+HT+PT” value (U87MG cells; listed as PT) was “completely eliminates all U87MG growing cells” and the “effectiveness of therapy by heating” value [6] was “also observed”.

With Buthionine sulfoximine [BSO] the GSH [7, 9] was 2.06 ± 0.51*^+ nmol/10^6 cells, the GSH [7, 10] was 2.24 ± 0.82 nmol/10^6 cells and the GSH (GSH in U87 (GBM) cells; 1 mM BSO + TTF (200 kHz, 1.5 μT, 240 min) + HT (42 °C, 20 min) applied 24 hours after seeding) was 1.92 ± 0.59*^+ nmol/10^6 cells. The GSH (GSH in U87 (GBM) cells; [10]) was 2.10 ± 0.70 nmol/10^6 cells, the GSH [8, 9] was 2.49 ± 0.66*^+ nmol/10^6 cells and the GSH [8, 10] was 3.14 ± 0.79 nmol/10^6 cells.
